Data published in ChEMBL document CHEMBL3351950, “Synthesis of genistein coupled with sugar derivatives and their inhibitory effect on nitric oxide production in macrophages” (Eur J Med Chem, 2014).
Active and inactive are the calls of the source. The calls are words filed in the database; no cut-off is given here.

Legend:
[1] = Cytotoxicity against LPS/IFNgamma-stimulated mouse RAW264.7 cells assessed as cell viability at 26 uM after 48 hrs by MTT method (reference value: 100 +/- 1.8%); assay type: cell-based; details: LPS/IFNgamma-stimulated RAW264.7 cells, read-out: Activity
[2] = tested on: J774.A1; assay: Inhibition of TNFalpha production in LPS/IFNgamma-stimulated mouse J774A1 cells assessed as TNFalpha level at 6.5 uM by ELISA method (reference value: 89.2 +/- 17.1 pg/mL); assay type: functional
[3] = tested on: RAW264.7; assay: Inhibition of TNFalpha production in LPS/IFNgamma-stimulated mouse RAW264.7 cells assessed as TNFalpha level at 6.5 uM by ELISA method; assay type: functional, cell-based
[4] = tested on: J774.A1; assay: Inhibition of nitric oxide production in LPS/IFNgamma-stimulated mouse J774A1 cells assessed as nitrites level at 13 uM by Griess method (reference value: 16.5 +/- 1.4 uM); assay type: functional
[5] = tested on: J774.A1; assay: Inhibition of nitric oxide production in LPS/IFNgamma-stimulated mouse J774A1 cells assessed as nitrites level at 6.5 uM by Griess method (reference value: 16.5 +/- 1.4 uM); assay type: functional
[6] = tested on: J774.A1; assay: Inhibition of nitric oxide production in LPS/IFNgamma-stimulated mouse J774A1 cells assessed as nitrites level at 26 uM by Griess method (reference value: 16.5 +/- 1.4 uM); assay type: functional
[7] = Cytotoxicity against LPS/IFNgamma-stimulated mouse J774A1 cells assessed as cell viability at 6.5 uM after 48 hrs by MTT method (reference value: 100 +/- 1.1%); assay type: cell-based, J774.A1; details: read-out: Activity
[8] = Cytotoxicity against LPS/IFNgamma-stimulated mouse J774A1 cells assessed as cell viability at 13 uM after 48 hrs by MTT method (reference value: 100 +/- 1.1%); assay type: cell-based, J774.A1; details: read-out: Activity
[9] = Cytotoxicity against LPS/IFNgamma-stimulated mouse J774A1 cells assessed as cell viability at 26 uM after 48 hrs by MTT method (reference value: 100 +/- 1.1%); assay type: cell-based, J774.A1; details: read-out: Activity
[10] = tested on: RAW264.7; assay: Inhibition of nitric oxide production in LPS/IFNgamma-stimulated mouse RAW264.7 cells assessed as nitrites level at 6.5 uM by Griess method (reference value: 6.4 +/- 0.5 uM); assay type: functional
[11] = tested on: RAW264.7; assay: Inhibition of nitric oxide production in LPS/IFNgamma-stimulated mouse RAW264.7 cells assessed as nitrites level at 13 uM by Griess method (reference value: 6.4 +/- 0.5 uM); assay type: functional
[12] = tested on: RAW264.7; assay: Inhibition of nitric oxide production in LPS/IFNgamma-stimulated mouse RAW264.7 cells assessed as nitrites level at 26 uM by Griess method (reference value: 6.4 +/- 0.5 uM); assay type: functional
[13] = Cytotoxicity against LPS/IFNgamma-stimulated mouse RAW264.7 cells assessed as cell viability at 6.5 uM after 48 hrs by MTT method (reference value: 100 +/- 1.8%); assay type: cell-based; details: LPS/IFNgamma-stimulated RAW264.7 cells, read-out: Activity
[14] = Cytotoxicity against LPS/IFNgamma-stimulated mouse RAW264.7 cells assessed as cell viability at 13 uM after 48 hrs by MTT method (reference value: 100 +/- 1.8%); assay type: cell-based; details: LPS/IFNgamma-stimulated RAW264.7 cells, read-out: Activity

Row | SMILES | viability at 48 h, 26 µM [1] | inhibition [2] | inhibition [3] | Activity [4] | Activity [5] | Activity [6] | viability at 48 h, 6.5 µM [7] | viability at 48 h, 13 µM [8] | viability at 48 h, 26 µM [9] | Activity [10] | Activity [11] | Activity [12] | viability at 48 h, 6.5 µM [13] | viability at 48 h, 13 µM [14] | Activity [2]
1 | CO[C@H]1O[C@H](COc2cc(O)c3c(=O)c(-c4ccc(O)cc4)coc3c2)[C@@H](O)[C@H](O)[C@H]1O | 78.3% | inactive | inactive | 11.3 µM | 7.2 µM | 14.3 µM | 68.1% | 64.3% | 44.9% | 1.4 µM | 1 µM | 1.7 µM | 91.3% | 88.1% | 
2 | CO[C@H]1O[C@H](COc2ccc(-c3coc4cc(OC[C@H]5O[C@H](OC)[C@H](OC(C)=O)[C@@H](OC(C)=O)[C@@H]5OC(C)=O)cc(O)c4c3=O)cc2)[C@@H](OC(C)=O)[C@H](OC(C)=O)[C@H]1OC(C)=O | 101% |  | inactive | 12.1 µM | 11.5 µM | 11.7 µM | 82.1% | 86.7% | 87.9% | 1.9 µM | 2.5 µM | 4.1 µM | 103% | 98.4% | 51.9 pg/mL
3 | CC1(C)O[C@H]2[C@@H](O1)[C@@H](COc1cc(O)c3c(=O)c(-c4ccc(O)cc4)coc3c1)O[C@@H]1OC(C)(C)O[C@@H]12 | 71.3% | inactive | inactive | 12.8 µM | 17.7 µM | 0.7 µM | 102% | 85.5% | 30.3% | 2.4 µM | 2.5 µM | 3.1 µM | 87.6% | 88.1% | 
4 | CO[C@H]1O[C@H](COc2cc(O)c3c(=O)c(-c4ccc(O)cc4)coc3c2)[C@@H](OC(C)=O)[C@H](OC(C)=O)[C@H]1OC(C)=O | 103% |  | inactive | 13.1 µM | 12.7 µM | 10.4 µM | 94.7% | 92.7% | 87.4% | 2.1 µM | 4.2 µM | 2.4 µM | 103% | 104% | 51.7 pg/mL
5 | CC1(C)O[C@H]2[C@@H](O1)[C@@H](COc1ccc(-c3coc4cc(OC[C@H]5O[C@@H]6OC(C)(C)O[C@@H]6[C@H]6OC(C)(C)O[C@H]65)cc(O)c4c3=O)cc1)O[C@@H]1OC(C)(C)O[C@@H]12 | 94.4% | inactive | inactive | 11.8 µM | 9.8 µM | 12.3 µM | 89.7% | 87.3% | 83.6% | 2.6 µM | 2.7 µM | 2.4 µM | 98.9% | 89.4% | 
6 | CO[C@H]1O[C@H](COc2ccc(-c3coc4cc(OC[C@H]5O[C@H](OC)[C@H](O)[C@@H](O)[C@@H]5O)cc(O)c4c3=O)cc2)[C@@H](O)[C@H](O)[C@H]1O | 92.2% | inactive | inactive | 9.1 µM | 8.7 µM | 8.5 µM | 99.9% | 96.6% | 94.8% | 0 µM | 0 µM | 0 µM | 93.6% | 99.2% | 
7 | O=c1c(-c2ccc(O)cc2)coc2cc(O)cc(O)c12 [GENISTEIN] | 108% | inactive |  | 13.8 µM | 13.4 µM | 14.5 µM | 112% | 104% | 110% | 6.3 µM | 6.3 µM | 6.1 µM | 128% | 103% | 
8 | O=c1c(-c2ccc(O)cc2)coc2cc(OC[C@H]3O[C@H](O)[C@H](O)[C@@H](O)[C@H]3O)cc(O)c12 | 95.8% |  | inactive | 10.9 µM | 9.7 µM | 9.1 µM | 93.6% | 95.2% | 88.9% | 1.4 µM | 0 µM | 0 µM | 95.9% | 98.2% | 38.3 pg/mL
